Data: ChEMBL document CHEMBL5390291, “Glutathione-responsive PROTAC for targeted degradation of ERα in breast cancer cells” (Bioorg Med Chem, 2023)
Blank lines part the entries; values can stand above or below the compound they belong to. Active and inactive are the calls of the source. The rule behind the calls is not given here.

What was measured:
[1] = target: T1, von Hippel-Lindau disease tumor suppressor/Estrogen receptor (Homo sapiens, UniProt P03372+P40337); test: PROTAC activity at VHL/GFP-tagged ER-alpha in human A549 cells assessed as ERalpha degradation by Western blot analysis; type: cell-based
Target sequence in this assay (P03372 whole entry, looked up): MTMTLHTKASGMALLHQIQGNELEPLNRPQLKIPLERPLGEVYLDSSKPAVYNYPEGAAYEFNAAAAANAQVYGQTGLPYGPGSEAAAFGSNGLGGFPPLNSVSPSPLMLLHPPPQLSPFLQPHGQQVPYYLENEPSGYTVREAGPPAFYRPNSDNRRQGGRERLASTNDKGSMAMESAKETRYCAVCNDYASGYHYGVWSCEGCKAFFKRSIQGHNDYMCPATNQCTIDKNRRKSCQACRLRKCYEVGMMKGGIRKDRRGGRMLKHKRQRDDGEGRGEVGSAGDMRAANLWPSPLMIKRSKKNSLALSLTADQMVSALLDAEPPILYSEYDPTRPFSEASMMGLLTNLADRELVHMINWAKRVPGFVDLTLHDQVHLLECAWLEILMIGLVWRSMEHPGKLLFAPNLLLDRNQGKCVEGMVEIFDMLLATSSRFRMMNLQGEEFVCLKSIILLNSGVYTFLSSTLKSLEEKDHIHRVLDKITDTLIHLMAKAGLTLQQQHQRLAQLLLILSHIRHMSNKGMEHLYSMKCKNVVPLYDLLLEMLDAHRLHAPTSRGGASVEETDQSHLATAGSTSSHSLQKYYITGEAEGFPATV
Target sequence in this assay (P40337 whole entry, looked up): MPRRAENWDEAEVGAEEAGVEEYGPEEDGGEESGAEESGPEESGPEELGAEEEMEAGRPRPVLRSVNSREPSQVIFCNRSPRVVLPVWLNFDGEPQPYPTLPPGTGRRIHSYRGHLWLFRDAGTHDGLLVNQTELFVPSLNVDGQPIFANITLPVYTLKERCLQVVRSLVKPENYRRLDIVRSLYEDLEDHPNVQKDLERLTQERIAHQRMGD

[2] = target: T1, von Hippel-Lindau disease tumor suppressor/Estrogen receptor; test: PROTAC activity at VHL/3 Flag-tagged ER-alpha in human A549 cells assessed as ERalpha degradation incubated for 12 hrs by Western blot analysis; type: cell-based; details: dose 0.5-10 µM
Target sequence in this assay (P03372 whole entry, looked up): as the sequence (P03372 whole entry, looked up) above
Target sequence in this assay (P40337 whole entry, looked up): as the sequence (P40337 whole entry, looked up) above

[3] = target: T1, von Hippel-Lindau disease tumor suppressor/Estrogen receptor; test: PROTAC activity at VHL/3 Flag-tagged ER-alpha in human NCI-H1299 cells assessed as ERalpha degradation incubated for 12 hrs by Western blot analysis; type: cell-based; details: dose 0.5-10 µM
Target sequence in this assay (P03372 whole entry, looked up): as the sequence (P03372 whole entry, looked up) above
Target sequence in this assay (P40337 whole entry, looked up): as the sequence (P40337 whole entry, looked up) above

[4] = target: T1, von Hippel-Lindau disease tumor suppressor/Estrogen receptor; test: PROTAC activity at VHL/3 Flag-tagged ER-alpha in HBE cells assessed as ERalpha degradation incubated for 12 hrs by Western blot analysis; type: cell-based; details: dose 0.5-10 µM
Target sequence in this assay (P03372 whole entry, looked up): as the sequence (P03372 whole entry, looked up) above
Target sequence in this assay (P40337 whole entry, looked up): as the sequence (P40337 whole entry, looked up) above

[5] = GSH reactivity of compound in water/acetonitrile solution assessed as release efficiency at 0.1 mM incubated for 48 hrs by HPLC analysis relative to control; type: physicochemical; details: buffer, 100 µM
[6] = Stability of compound in PBS buffer pH 7.4 at 0.1 mM incubated upto 48 hrs by HPLC analysis; type: physicochemical; details: pH 7.4, 48 h, 100 µM
[7] = Stability of compound in mouse plasma at 0.1 mM incubated for 8 hrs by HPLC analysis; type: ADME, cell-free; details: 100 µM
[8] = target: T1, von Hippel-Lindau disease tumor suppressor/Estrogen receptor; test: PROTAC activity at VHL/ER-alpha in human MCF7 cells assessed as ERalpha degradation incubated for 6 hrs by Western blot analysis; type: cell-based; details: dose 0.5-2 µM
Target sequence in this assay (P03372 whole entry, looked up): as the sequence (P03372 whole entry, looked up) above
Target sequence in this assay (P40337 whole entry, looked up): as the sequence (P40337 whole entry, looked up) above

[9] = target: T1, von Hippel-Lindau disease tumor suppressor/Estrogen receptor; test: PROTAC activity at VHL/ER-alpha in human MCF7 cells assessed as ERalpha degradation at 0.5 uM incubated for 6 hrs by Western blot analysis relative to control; type: cell-based
Target sequence in this assay (P03372 whole entry, looked up): as the sequence (P03372 whole entry, looked up) above
Target sequence in this assay (P40337 whole entry, looked up): as the sequence (P40337 whole entry, looked up) above

[10] = target: T1, von Hippel-Lindau disease tumor suppressor/Estrogen receptor; test: PROTAC activity at VHL/ER-alpha in human MCF7 cells assessed as ERalpha degradation at 10 uM incubated for 4 hrs by Western blot analysis; type: cell-based
[11] = target: T1, von Hippel-Lindau disease tumor suppressor/Estrogen receptor; test: PROTAC activity at VHL/ER-alpha in human MCF7 cells assessed as ERalpha degradation at 10 uM incubated for 6 hrs by Western blot analysis; type: cell-based
[12] = target: T1, von Hippel-Lindau disease tumor suppressor/Estrogen receptor; test: PROTAC activity at VHL/3 Flag-tagged ER-alpha in HBE cells assessed as ERalpha degradation at 0.5 to 10 uM incubated for 6 hr by western blot analysis; type: cell-based; details: dose 0.5-10 µM
[13] = target: T1, von Hippel-Lindau disease tumor suppressor/Estrogen receptor; test: PROTAC activity at VHL/ER-alpha in human BT-474 cells assessed as ERalpha degradation by Western blot analysis; type: cell-based; details: TDE = time-dependent effect
[14] = target: T1, von Hippel-Lindau disease tumor suppressor/Estrogen receptor; test: PROTAC activity at VHL/ER-alpha in human MCF7 cells assessed as ERalpha degradation level at 10 uM by Western blot analysis; type: cell-based; details: time 3-6 hrs, TDE = time-dependent effect
[15] = target: T1, von Hippel-Lindau disease tumor suppressor/Estrogen receptor; test: PROTAC activity at VHL/ER-alpha in human MCF7 cells assessed as ERalpha degradation level at 10 uM incubated 3 to 6 hrs in the presence of NEM by Western blot analysis; type: cell-based; details: time 3-6 hrs
[16] = target: T1, von Hippel-Lindau disease tumor suppressor/Estrogen receptor; test: PROTAC activity at VHL/3 Flag-tagged ER-alpha in human NCI-H1299 cells assessed as ERalpha degradation incubated for 6 hrs by Western blot analysis; type: cell-based; details: dose 0.5-10 µM
[17] = target: T1, von Hippel-Lindau disease tumor suppressor/Estrogen receptor; test: PROTAC activity at VHL/ER-alpha in human MCF7 cells assessed as ERalpha degradation at 10 uM preincubated for 1 hr with MG132 followed by compound addition and measured after 6 hrs by Western blot analysis; type: cell-based
[18] = target: T1, von Hippel-Lindau disease tumor suppressor/Estrogen receptor; test: PROTAC activity at VHL/ER-alpha in human MCF7 cells assessed as ERalpha degradation level at 10 uM pretreated with tamoxifen followed by compound addition and measured after 6 hrs by Western blot analysis; type: cell-based
[19] = target: T1, von Hippel-Lindau disease tumor suppressor/Estrogen receptor; test: PROTAC activity at VHL/ER-alpha in human MCF7 cells assessed as ERalpha degradation level at 10 uM pretreated with VHL-L followed by compound addition and measured after 6 hrs by Western blot analysis; type: cell-based
[20] = target: T1, von Hippel-Lindau disease tumor suppressor/Estrogen receptor; test: PROTAC activity at VHL/ER-alpha in human VHL knockdown MCF7 cells assessed as ERalpha degradation level at 10 uM incubated for 6 hrs by Western blot analysis; type: cell-based
MCF7 = test: Antiproliferative activity against human MCF7 cells assessed as inhibition of cell growth at 10 uM incubated for 9 days by hemocytometer cell counting analysis; type: functional, cell-based; details: time 9.0 day
BT-474 [21] = test: Antiproliferative activity against human BT-474 cells assessed as inhibition of cell growth at 10 uM incubated for 3 days by hemocytometer cell counting analysis; type: functional, cell-based; details: time 3.0 day
BT-474 [22] = test: Antiproliferative activity against human GCLC knockdown BT-474 cells assessed as inhibition of cell growth at 10 uM incubated after 2 days by hemocytometer cell counting analysis; type: functional, cell-based; details: time 2.0 day
BT-474 [23] = test: Antiproliferative activity against human SLC7A11 knockdown BT-474 cells assessed as inhibition of cell growth at 10 uM incubated after 2 days by hemocytometer cell counting analysis; type: functional, cell-based; details: time 2.0 day
[24] = target: T1, von Hippel-Lindau disease tumor suppressor/Estrogen receptor; test: PROTAC activity at VHL/ER-alpha in human MCF7 cells assessed as ERalpha degradation incubated for 12 hrs by Western blot analysis; type: cell-based
[25] = target: T1, von Hippel-Lindau disease tumor suppressor/Estrogen receptor; test: PROTAC activity at VHL/ER-alpha in human MCF7 cells assessed as ERalpha degradation at 2 uM incubated for 1 hr by Western blot analysis relative to control; type: cell-based

Activity [1]: Active | Activity [2]: Dose-Dependent Effect | Activity [3]: Dose-Dependent Effect | Activity [4]: Dose-Dependent Effect | Activity [5]: 70% | Stability [6]: Stable | Stability [7]: Stable | Activity [8]: Dose-Dependent Effect | Activity [9]: 50% | Activity [10]: Active | Activity [11]: Active | Activity [12]: Active | Activity [13]: Tde | Activity [14]: Tde | Activity [15]: inactive | Activity [16]: Dose-Dependent Effect | Activity [17]: inactive | Activity [18]: inactive | Activity [19]: inactive | Activity [20]: inactive
Compound: CC/C(=C(\c1ccccc1)c1ccc(OCC(=O)NCCOCCOCC(=O)N[C@H](C(=O)N2C[C@H](OS(=O)(=O)c3ccccc3[N+](=O)[O-])C[C@H]2C(=O)NCc2ccc(-c3scnc3C)cc2)C(C)(C)C)cc1)c1ccccc1
inhibition (MCF7): Active | inhibition (BT-474 [21]): Active | inhibition (BT-474 [22]): inactive | inhibition (BT-474 [23]): inactive

DC50 [24]: 56 nM | Activity ([24]; dose 0.002-2 µM): Dose-Dependent Effect | Activity [25]: 50%
Compound: CC/C(=C(\c1ccccc1)c1ccc(OCC(=O)NCCOCCOCC(=O)N[C@H](C(=O)N2C[C@H](O)C[C@H]2C(=O)NCc2ccc(-c3scnc3C)cc2)C(C)(C)C)cc1)c1ccccc1

DC50 [24]: 188 nM
Compound: Cc1ncsc1-c1ccc(CNC(=O)[C@@H]2C[C@@H](O)CN2C(=O)[C@@H](NC(=O)COCCOCCNC(=O)COc2ccc(C(=O)c3c(-c4ccc(O)cc4)sc4cc(O)ccc34)cc2)C(C)(C)C)cc1
